Measured values as given in ChEMBL document CHEMBL5247631, “Ferroptosis-related small-molecule compounds in cancer therapy: Strategies and applications” (Eur J Med Chem, 2022).
Values belong to the molecule of their own block, whether it stands above or below them.

Experiments:
DLD-1 = assay: Antiproliferative activity against human DLD-1 cells assessed as reduction in cell viability incubated for 48 hrs by MTT assay; type: functional, cell-based; conditions: DLD-1, 48 h
HCT-116 = assay: Antiproliferative activity against human HCT-116 cells assessed as reduction in cell viability incubated for 48 hrs by MTT assay; type: functional, cell-based; conditions: HCT-116, 48 h
[1] = Anticancer activity against human BJeLR cells assessed as reduction in cell viability incubated for 24 hrs by CellTiter-Glo luminescent assay; type: functional, cell-based
[2] = Anticancer activity against human OCI-Ly8 cells assessed as reduction in cell viability incubated for 24 hrs by CellTiter-Glo luminescent assay; type: functional, cell-based; conditions: OCI-Ly8, 24 h
DOHH-2 = assay: Anticancer activity against human DOHH-2 cells assessed as reduction in cell viability incubated for 24 hrs by CellTiter-Glo luminescent assay; type: functional, cell-based; conditions: DOHH-2, 24 h
SU-DHL-5 = assay: Anticancer activity against human SU-DHL-5 cells assessed as reduction in cell viability incubated for 24 hrs by CellTiter-Glo luminescent assay; type: functional, cell-based; conditions: SU-DHL-5, 24 h
SU-DHL-6 = assay: Anticancer activity against human SU-DHL-6 cells assessed as reduction in cell viability incubated for 24 hrs by CellTiter-Glo luminescent assay; type: functional, cell-based; conditions: SU-DHL-6, 24 h
SU-DHL10 = assay: Anticancer activity against human SU-DHL-10 cells assessed as reduction in cell viability incubated for 24 hrs by CellTiter-Glo luminescent assay; type: functional, cell-based; conditions: SU-DHL10, 24 h
SU-DHL-16 = assay: Anticancer activity against human SU-DHL-16 cells assessed as reduction in cell viability incubated for 24 hrs by CellTiter-Glo luminescent assay; type: functional, cell-based; conditions: SU-DHL-16, 24 h
SU-DHL-2 = assay: Anticancer activity against human SUDHL2 cells assessed as reduction in cell viability incubated for 24 hrs by CellTiter-Glo luminescent assay; type: functional, cell-based; conditions: SU-DHL-2, 24 h
[3] = Cytotoxicity against human BJeLR cells overexpress oncogenic RAS assessed as induction of cell death; type: functional, cell-based
ES-2 = assay: Anticancer activity against human ES2 cells assessed as reduction in cell viability incubated for 72 hrs by Alamar Blue viability assay; type: functional, cell-based; conditions: ES-2, 72 h
MDA-MB-231 = assay: Antiproliferative activity against human MDA-MB-231 cells assessed as inhibition of cell viability incubated for 72 hrs by MTT assay; type: functional, cell-based; conditions: MDA-MB-231, 72 h
[4] = Anticancer activity against human PHMLER expressing CD24low phenotype cells assessed as reduction in cell viability incubated for 72 hrs; type: functional, cell-based
BXPC-3 = assay: Anticancer activity against human BXPC-3 cells assessed as reduction in cell viability incubated for 48 hrs by MTT assay; type: functional, cell-based; conditions: BXPC-3, 48 h
SW1990 = assay: Anticancer activity against human SW1990 cells assessed as reduction in cell viability incubated for 48 hrs by MTT assay; type: functional, cell-based; conditions: SW1990, 48 h
[5] = Induction of ferroptosis in human BJeLR cells assessed as inhibition of (cystine-glutamate antiporter) system Xc- mediated cystine transport; type: functional, cell-based; conditions: bjelr cell
HT-1080 = assay: Induction of ferroptosis in human HT-1080 cells assessed as inhibition of (cystine-glutamate antiporter) system Xc- mediated cystine transport; type: functional, cell-based
Calu-1 = assay: Induction of ferroptosis in human Calu-1 cells assessed as inhibition of (cystine-glutamate antiporter) system Xc- mediated cystine transport; type: functional, cell-based
SGC-7901 = assay: Anticancer activity against human SGC-7901 cells assessed as inhibition of cell viability incubated for 72 hrs by MTT assay; type: functional, cell-based; conditions: SGC-7901, 72 h
BGC-823 = assay: Anticancer activity against human BGC-823 cells assessed as inhibition of cell viability incubated for 72 hrs by MTT assay; type: functional, cell-based; conditions: BGC-823, 72 h
NCI-N87 = assay: Anticancer activity against human NCI-N87 cells assessed as inhibition of cell viability incubated for 72 hrs by MTT assay; type: functional, cell-based; conditions: NCI-N87, 72 h
MEF = assay: Antitumor activity against mouse MEF cells xenografted in nude mouse assessed as reduction in tumor weight at 40 mg/kg, po twice daily for 7 days relative to control; type: functional; set-up: scale not given: the % may be the effect or the level left; conditions: time 7 day

IC50 (DLD-1): 50200 nM | IC50 (HCT-116): 44500 nM
Compound: COc1ccc2oc(=N)c(C(N)=S)cc2c1

IC50 (SU-DHL-5): 1 nM | IC50 (SU-DHL-6): 1 nM | IC50 (SU-DHL10): 4 nM | IC50 (SU-DHL-16): 12 nM | IC50 (SU-DHL-2): 21 nM
Compound: CC(C)Oc1ccc(C(=O)Cn2ccnc2)cc1-n1c(CN2CCN(C(=O)COc3ccc(Cl)cc3)CC2)nc2ccccc2c1=O
IC50 [1]: 3 nM | IC50 [2]: 1 nM | IC50 (DOHH-2): 14 nM

Compound: O=S(=O)(c1ccc2c(c1)C(=NO)c1cc(S(=O)(=O)N3CCCCC3)ccc1-2)N1CCCCC1
IC50 [3]: > 1000 nM

Compound: CC1CC[C@@]23C[C@H](O)C(=O)[C@@]2(O)[C@]1(C)[C@H](OC(=O)CCl)C[C@@H](C1=CCn2c(=O)n(-c4ccccc4)c(=O)n2C1)[C@@H]3C (stereo partly specified)
IC50 (ES-2): 1600 nM

IC50 (MDA-MB-231): 340 nM
Compound: C=C1C(=O)O[C@H]2[C@H]1CC/C(COC(=O)/C=C/c1c(OC)cccc1OC)=C\CC[C@@]1(C)O[C@@H]21

Compound: CC[C@@H](C(=O)[C@@H](C)[C@@H](O)[C@H](C)[C@@H]1O[C@@H]([C@@H](CC)C(=O)O)CC[C@@H]1C)[C@H]1O[C@]2(C=C[C@@H](O)[C@]3(CC[C@@](C)([C@H]4CC[C@](O)(CC)[C@H](C)O4)O3)O2)[C@H](C)C[C@@H]1C [SALINOMYCIN]
IC50 [4]: 1000 nM

Compound: C[C@@H]1CC[C@@]2(OC1)O[C@H]1C[C@H]3[C@@H]4CC=C5C[C@@H](O)C[C@@H](O)[C@]5(C)[C@H]4CC[C@]3(C)[C@H]1[C@@H]2C [RUSCOGENIN]
IC50 (BXPC-3): 7320 nM | IC50 (SW1990): 8140 nM

IC50 [5]: 900 nM
Compound: CC(C)Oc1ccc(CN2CCNCC2)cc1-n1c(CN2CCN(C(=O)COc3ccc(Cl)cc3)CC2)nc2ccccc2c1=O

Compound: CCOc1ccccc1-n1c(C(C)N2CCN(C(=O)COc3ccc(Cl)cc3)CC2)nc2ccccc2c1=O (stereo unspecified) [ERASTIN]
IC50 (HT-1080): 200 nM | IC50 (Calu-1): 140 nM | IC50 [5]: 625 nM

IC50 (SGC-7901): 250000 nM | IC50 (BGC-823): 2800 nM
Compound: Cc1coc2c1C(=O)C(=O)c1c-2ccc2c1CCCC2(C)C [TANSHINONE IIA]
IC50 (NCI-N87): 3100 nM

IC50 (HT-1080): 76000 nM
Compound: C#Cc1nc(C2=C(C)[C@H](O)CC2)cs1

Compound: C#CCN[C@@H]1C=C[C@]2(O[C@H]([C@@H](CC)C(=O)[C@@H](C)[C@@H](O)[C@H](C)[C@@H]3O[C@@H]([C@@H](CC)C(=O)O)CC[C@@H]3C)[C@@H](C)C[C@H]2C)O[C@@]12CC[C@@](C)([C@H]1CC[C@](O)(CC)[C@H](C)O1)O2
IC50 [4]: 100 nM

Compound: C[C@H](CN1CCCC1)C(=O)c1ccc(C(F)(F)F)cc1 [LANPERISONE]
Activity (MEF): 37%
